{
  "source": "patent US9937154B2",
  "about": "“Use of telmisartan to prevent and treat graft versus host disease and other alloimmune and autoimmune diseases” (Hackensack University Medical Center, priority 2015, dated 2018)",
  "key": {"[1]": {"tested_on": "preconstricted rat aorta", "conditions": "cited from earlier work"}, "[2]": {"tested_on": "rat model of hypertension", "conditions": "cited from earlier work"}, "[3]": {"target": "T1, ROCK II (Homo sapiens, UniProt O75116)", "T1 sequence (O75116 whole entry)": "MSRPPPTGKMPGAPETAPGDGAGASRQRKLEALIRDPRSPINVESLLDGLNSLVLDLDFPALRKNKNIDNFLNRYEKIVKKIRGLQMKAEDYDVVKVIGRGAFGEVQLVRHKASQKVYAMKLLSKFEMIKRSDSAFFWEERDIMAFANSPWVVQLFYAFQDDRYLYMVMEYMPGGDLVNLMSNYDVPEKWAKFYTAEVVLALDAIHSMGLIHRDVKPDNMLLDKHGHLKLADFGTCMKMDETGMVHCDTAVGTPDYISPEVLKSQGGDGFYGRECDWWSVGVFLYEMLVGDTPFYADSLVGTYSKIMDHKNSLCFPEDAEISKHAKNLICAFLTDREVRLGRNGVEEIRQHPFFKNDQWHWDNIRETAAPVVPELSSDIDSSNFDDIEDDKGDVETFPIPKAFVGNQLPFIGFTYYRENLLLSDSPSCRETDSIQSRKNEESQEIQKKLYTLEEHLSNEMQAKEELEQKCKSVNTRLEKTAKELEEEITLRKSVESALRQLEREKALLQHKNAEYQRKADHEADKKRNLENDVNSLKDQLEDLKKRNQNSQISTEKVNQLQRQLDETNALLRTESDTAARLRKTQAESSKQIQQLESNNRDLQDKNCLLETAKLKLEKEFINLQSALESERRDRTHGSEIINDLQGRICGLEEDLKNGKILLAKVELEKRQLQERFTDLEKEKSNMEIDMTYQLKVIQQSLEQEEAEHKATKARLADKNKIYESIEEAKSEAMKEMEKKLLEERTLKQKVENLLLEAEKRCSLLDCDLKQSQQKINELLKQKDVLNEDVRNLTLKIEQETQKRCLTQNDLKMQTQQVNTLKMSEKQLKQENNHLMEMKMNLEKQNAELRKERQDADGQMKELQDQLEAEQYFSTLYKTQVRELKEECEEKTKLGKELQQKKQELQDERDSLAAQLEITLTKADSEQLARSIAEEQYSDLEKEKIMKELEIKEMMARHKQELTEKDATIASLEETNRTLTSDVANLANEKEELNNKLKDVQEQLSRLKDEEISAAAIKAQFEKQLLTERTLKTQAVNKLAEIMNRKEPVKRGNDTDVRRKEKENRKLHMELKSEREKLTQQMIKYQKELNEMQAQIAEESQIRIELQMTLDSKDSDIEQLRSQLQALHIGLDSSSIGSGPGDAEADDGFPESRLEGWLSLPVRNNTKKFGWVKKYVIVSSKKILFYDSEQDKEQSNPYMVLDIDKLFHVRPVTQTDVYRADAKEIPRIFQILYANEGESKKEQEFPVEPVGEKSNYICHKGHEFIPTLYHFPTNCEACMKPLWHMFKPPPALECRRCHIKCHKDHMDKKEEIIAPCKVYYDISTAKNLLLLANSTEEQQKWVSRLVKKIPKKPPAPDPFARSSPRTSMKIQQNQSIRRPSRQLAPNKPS", "conditions": "cited from earlier work"}, "[4]": {"tested_on": "rat models of inflammatory and noninflammatory arthritic pain", "conditions": "cited from earlier work"}, "[5]": {"target": "human ROCK I (Homo sapiens, UniProt Q13464)", "sequence (Q13464 whole entry)": "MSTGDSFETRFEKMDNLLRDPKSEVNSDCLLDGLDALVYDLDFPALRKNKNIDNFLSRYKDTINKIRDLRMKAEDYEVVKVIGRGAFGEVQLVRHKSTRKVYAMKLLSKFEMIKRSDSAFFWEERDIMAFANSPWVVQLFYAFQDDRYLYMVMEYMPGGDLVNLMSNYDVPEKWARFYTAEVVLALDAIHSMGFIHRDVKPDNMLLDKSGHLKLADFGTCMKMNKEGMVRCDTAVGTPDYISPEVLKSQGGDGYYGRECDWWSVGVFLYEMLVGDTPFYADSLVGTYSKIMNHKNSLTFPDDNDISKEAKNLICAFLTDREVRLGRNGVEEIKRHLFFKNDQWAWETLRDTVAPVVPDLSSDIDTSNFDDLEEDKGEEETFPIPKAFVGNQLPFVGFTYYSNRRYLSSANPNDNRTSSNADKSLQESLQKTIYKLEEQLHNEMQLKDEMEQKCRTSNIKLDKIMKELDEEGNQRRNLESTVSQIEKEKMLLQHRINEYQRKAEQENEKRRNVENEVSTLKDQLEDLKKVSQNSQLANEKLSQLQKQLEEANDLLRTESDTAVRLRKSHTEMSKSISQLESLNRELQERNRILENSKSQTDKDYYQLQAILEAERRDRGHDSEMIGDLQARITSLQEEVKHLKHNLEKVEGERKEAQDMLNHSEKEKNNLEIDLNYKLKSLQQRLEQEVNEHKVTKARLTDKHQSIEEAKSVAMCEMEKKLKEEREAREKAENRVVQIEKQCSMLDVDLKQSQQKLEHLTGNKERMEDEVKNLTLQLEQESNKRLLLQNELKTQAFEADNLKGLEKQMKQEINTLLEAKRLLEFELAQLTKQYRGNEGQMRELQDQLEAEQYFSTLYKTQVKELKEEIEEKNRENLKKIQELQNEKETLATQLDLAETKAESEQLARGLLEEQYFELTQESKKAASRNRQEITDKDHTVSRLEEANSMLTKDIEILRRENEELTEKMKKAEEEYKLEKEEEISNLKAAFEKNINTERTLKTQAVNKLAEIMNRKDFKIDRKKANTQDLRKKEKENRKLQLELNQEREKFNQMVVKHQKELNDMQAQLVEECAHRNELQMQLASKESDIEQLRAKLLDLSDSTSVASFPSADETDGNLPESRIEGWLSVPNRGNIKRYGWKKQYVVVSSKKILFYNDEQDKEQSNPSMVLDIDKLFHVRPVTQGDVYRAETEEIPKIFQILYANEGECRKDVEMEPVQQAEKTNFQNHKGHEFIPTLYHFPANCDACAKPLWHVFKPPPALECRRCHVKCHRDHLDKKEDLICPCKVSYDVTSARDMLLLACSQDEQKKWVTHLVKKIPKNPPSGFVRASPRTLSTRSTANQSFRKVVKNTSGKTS", "conditions": "cited from earlier work"}, "[6]": {"tested_on": "transplant patients (IT GVHD)", "conditions": "cited from earlier work"}, "[7]": {"tested_on": "ROCK", "conditions": "cited from earlier work"}, "[8]": {"tested_on": "SAH patients", "conditions": "over 1400 SAH patients; cited from earlier work"}, "[9]": {"tested_on": "small intestinal crypts", "test": "small intestine tissue sections of 90 day survivor mice", "format": "in vivo, mouse", "conditions": "FIG. 7", "from_the_text": "(B) Limited inflammation within dashed lines of basal layer and lamina propria, with intact crypts, in 90 day survivor Fasudil® treated mice."}, "[10]": {"tested_on": "CFSE labeled splenic lymphocytes from C3B6 hosts", "test": "CFSE labeling with flow-based assessment of splenic lymphocyte division in one-way MLR", "format": "cell-based, mouse", "conditions": "day 98 survivor mice", "protocol": "Carboxyfluorescein […] succinimidyl ester (CFSE) labeling (Molecular Probes, Carlsbad, Calif., Catalog No. C34554, or equivalent) with flow cytometry detection was employed to assess lymphocyte cell division in response to alloantigen recognition. Briefly, lymphocytes from responders and stimulators were harvested as described above. For this experiment, sources of stimulator cells included C3H, C3B6 and Balb/c mice. Next, lymphocytes from responders were incubated in CFSE prepared according to manufacturer's protocol at 37° C. for 10 minutes. The staining was quenched by the addition of 5 volumes of ice-cold culture media (12.5% Bovine Serum Albumin (BSA) in RPMI) to the lymphocytes. Lymphocytes were incubated on ice for 5 minutes before pelleting by centrifugation. After centrifugation, the lymphocytes were washed by resuspending and pelleting 3 times in fresh culture media. One-way MLRs were performed by mixing 1×10^5 lymphocytes from both stimulator and CFSE responder cells in a 96-well tissue culture plate (Corning Costar, Tewksbury, Mass., Catalog No. CLS3585 or equivalent). […] After 5 days of incubation, the cells were harvested and analyzed using a flow cytometer with 488 nm excitation and emission filters appropriate for fluorescein. […]"}, "[11]": {"tested_on": "C3B6 mice (GVHD model)", "test": "GVHD survival in irradiated C3B6 F1 mice given ATBM and donor T cells", "conditions": "ATBM + T cells + Fasudil i.p. and p.o., n = 26"}, "[12]": {"tested_on": "animal models of subarachnoid hemorrhage (SAH)", "conditions": "cited from earlier work"}, "[13]": {"tested_on": "C3B6 mice (GVHD model)", "test": "GVHD-associated skin inflammation in C3B6 mice", "format": "in vivo, mouse", "conditions": "ATBM+T cells+Fasudil recipient mice", "protocol": "Skin is most commonly affected and usually the first organ involved in GVHD. Ferrara J L M, et al., Lancet. 373(9674): 1550-1561 (2009). In this study, C3B6 mice were used to determine the effect of ROCK inhibitors on GVHD-associated skin inflammation.\nC3B6 mice were treated according to Example 1. […] . Skin inflammation in C3B6 treated mice occurred in the fourth week and gradually waned over a two week-period."}, "[14]": {"tested_on": "responding splenocytes from C3B6 hosts", "test": "mouse IFN-γ ELISPOT after one-way mixed lymphocyte reaction of host splenocytes", "format": "cell-based", "protocol": "Classically, a MLR is carried out by co-incubating lymphocytes from two strains that differ in histocompatibility genes for several days, and the proliferative response of T cells of one lymphocyte population to histocompatibility antigens of the other then measured.\nSecretion of IFN-γ by responder cells in a MLR was used as an indicator of cytotoxic T lymphocyte function (i.e., alloreactivity). Briefly, spleens from C3B6 mice treated according to Example 1 were harvested at day 10 (C3H donor T cells migrating to the spleen with few de novo generated T cells emigrating from the host thymus) or at day 84 (spleens containing newly generated T cells maturing within the host thymus; i.e., allotolerant of host B6 parental antigens) post-transplant for use as responders. Spleens from C3H, C3B6 and DBA mice (Jackson Laboratory) were harvested for use as stimulators. Spleens were homogenized and the cells were washed twice with Phosphate Buffered Saline (PBS) (Sigma Aldrich, St. Louis, Mo., Catalog No. P5493, or equivalent). Red blood cells were separated from lymphocytes using Ficoll®. Briefly, cells were transferred to 50 mL conical tubes containing 15 mL of Ficoll®-Paque PLUS (GE Healthcare, Waukesha, Wis., Catalog No. 17-1440-03) and centrifuged at 800 rcf (1,900-2,000 rpm) for 20 minutes with centrifuge break off. After centrifugation, the buffy coat layer (containing lymphocytes) was removed and transferred to a new 50 mL conical tube. Phosphate-buffered saline (PBS) without calcium and magnesium (Gibco, Life Technologies, Carlsbad, Calif., Catalog No. 10010-023 or equivalent) was added to the buffy coat layer so that the total volume in the conical tube is equal to 50 mL. The buffy coat layer in PBS was centrifuged at 250 rcf (1,200 rpm) for 10 minutes with centrifuge brake applied. After centrifugation, the PBS was aspirated and the lymphocyte pellet was resuspended in 48 mL of PBS. Lymphocytes resuspended in PBS were centrifuged at 250 rcf (1,200 rpm) for 10 minutes with centrifuge break applied. PBS was aspirated and PBMC pellet resuspended in 12.5% Bovine Serum Albumin (BSA) (Sigma-Aldrich, St. Louis, Mo., Catalog No. A9418-5G or equivalent) in RPMI medium (Sigma-Aldrich, St. Louis, Mo., Catalog No. R7388 or equivalent). Stimulator lymphocytes (from C3H, C3B6 and DBA mouse spleens) were irradiated for 2.5 minutes (2,000 RAD) in a cesium irradiator.\nOne-way MLRs were performed by mixing 1×10^5 lymphocytes from both stimulator and responder cells in a 96-well ELISPOT (eBioscience, San Diego, Calif., Catalog No. 88-7384, or equivalent) capture plate coated with anti-mouse IFN-γ antibody according to manufacturer's protocol. […]"}, "[15]": {"tested_on": "C3B6 mice (GVHD model)", "test": "GVHD-associated weight loss and diarrhea in C3B6 mice", "format": "in vivo, mouse", "protocol": "It is well known that weight loss occurs in patients with GVHD. Jacobsohn D A, et al., Bone Marrow […]. 29(3): 231-236 (2002). […] C3B6 mice were treated according to Example 1. […] Despite the similar initial weight losses of Fasudil® treated and untreated T cell recipients, the two groups had different rates of diarrhea. […] Diarrhea resolved by the fourth week among survivors in both groups."}, "[16]": {"tested_on": "neutrophil migration", "conditions": "cited from earlier work"}, "[17]": {"conditions": "in vivo; cited from earlier work"}, "[18]": {"target": "T1, ROCK II", "conditions": "cited from earlier work", "remark": "listed apart in the source"}},
  "note": "Entries after “also recorded” stand apart in the source; their conditions may differ. Counter-ions that a name gives are not always drawn. Like-named read-outs stand apart in the source and are kept apart here.",
  "data": [
    {"compound": "CCn1c(-c2nonc2N)nc2cnc(Oc3cccc(NC(=O)c4ccc(OCCN5CCOCC5)cc4)c3)cc21", "note": "[GSK 269962]", "values": [
      {"measurement": "vasorelaxation", "setting": "[1]", "result": "induce vasorelaxation"},
      {"measurement": "blood pressure", "setting": "[2]", "result": "lower blood pressure"}
    ]},
    {"compound": "O=C(Nc1ccc(-c2ccncc2)cc1)N[C@H](CO)c1ccccc1", "note": "[AS 1892802]", "values": [
      {"measurement": "IC50", "setting": "[3]", "result": 52, "unit": "nM"},
      {"measurement": "analgesic effects", "setting": "[4]", "result": "exhibits analgesic effects"},
      {"measurement": "IC50", "setting": "[5]", "result": 122, "unit": "nM"}
    ]},
    {"compound": "maraviroc", "values": [
      {"measurement": "IT GVHD and acute (within 100 days) death", "setting": "[6]", "result": "prevented IT GVHD and acute (within 100 days) death; also recorded: no acute deaths"}
    ]},
    {"compound": "c1ccc2c(-c3ccncc3)c[nH]c2c1", "note": "[Rockout®]", "values": [
      {"measurement": "IC50", "setting": "[7]; ATP-competitive, reversible", "result": 25000, "unit": "nM"},
      {"measurement": "effect on the activation of ROCK", "setting": "[7]", "result": "does not inhibit the activation of ROCK"}
    ]},
    {"compound": "O=S(=O)(c1cccc2cnccc12)N1CCCNCC1", "note": "[Fasudil®, Fasudil]", "values": [
      {"measurement": "tolerability and safety", "setting": "[8]", "result": "well tolerated and safe"},
      {"measurement": "small intestinal crypt inflammation", "setting": "[9]", "result": "minimal small intestinal crypt inflammation"},
      {"measurement": "spleen cell division in response to B6C3F1 stimulation", "setting": "[10]; FIG. 6-E", "result": "strongly responded to B6C3F1 stimulation"},
      {"measurement": "spleen cell division in response to Balb/c stimulation", "setting": "[10]; FIG. 6-F", "result": "comparable to their response to Balb/c"},
      {"measurement": "Survival Rate (95% CI), 90 day", "setting": "[11]", "result": 73, "unit": "%"},
      {"measurement": "Survival Rate (95% CI), 90 day", "setting": "[11]; listed as Fasudil ®", "result": "73% (55%-88%)"},
      {"measurement": "blood vessel spasm and constriction after subarachnoid bleeding", "setting": "[12]", "result": "effective in reversing blood vessel spasm and constriction"},
      {"measurement": "skin inflammation", "setting": "[13]", "result": "did not prevent skin inflammation"},
      {"measurement": "Day 10 IFN-γ secreting spleen cell frequencies", "setting": "[14]; Concanavalin A positive control", "result": "120.0 per 100,000 cells"},
      {"measurement": "Day 10 IFN-γ secreting spleen cell frequencies", "setting": "[14]; irradiated stimulators C3B6F1 (host), 4 day one-way MLR", "result": "115.6 per 100,000 cells"},
      {"measurement": "Day 10 IFN-γ secreting spleen cell frequencies", "setting": "[14]; irradiated stimulators C3H (self), 4 day one-way MLR", "result": "2.3 per 100,000 cells"},
      {"measurement": "Day 10 IFN-γ secreting spleen cell frequencies", "setting": "[14]; irradiated stimulators DBA (third party), 4 day one-way MLR", "result": "18 per 100,000 cells"},
      {"measurement": "mice developing clinically observable diarrhea", "setting": "[15]; between second and third weeks post-transplant", "result": "less than 20%"},
      {"measurement": "weight loss", "setting": "[15]; first three weeks post-transplant, roughly the same as ATBM+T cells mice", "result": "~25", "unit": "% total body weight"},
      {"measurement": "subsequent weight recovery", "setting": "[15]; most experiments, data not shown", "result": "recovered more weight than ATBM+T cells recipient mice"}
    ]},
    {"compound": "Cl.O=c1[nH]ccc2c(S(=O)(=O)N3CCCNCC3)cccc12", "note": "[HA 1100 hydrochloride]", "values": [
      {"measurement": "neutrophil migration", "setting": "[16]", "result": "inhibit neutrophil migration"},
      {"measurement": "vasodilatory effects", "setting": "[17]", "result": "potent vasodilatory effects"}
    ]},
    {"compound": "Cc1cncc2cccc(S(=O)(=O)N3CCCN(C(=O)CN)C[C@@H]3C)c12", "note": "[Glycyl-H-1152 dihydrochloride]", "values": [
      {"measurement": "IC50", "setting": "[18]", "result": 11.8, "unit": "nM"}
    ]}
  ]
}
